Measured values published in article PMC10482914, “Molecular architecture and electron transfer pathway of the Stn family transhydrogenase” (Nature Communications, 2023).
Blank lines part the entries; values can stand above or below the compound they belong to.

Tests used:
[1] = target: T1, StnABC complex (FMN / NAD(H) site in StnB) (Sporomusa ovata, UniProt A0A0U1KYM9); test: spectrophotometric, […] nm; type: biochemical; conditions: 0.25 mM NADH, 0.5 mM NADP+, 30 uM reduced ferredoxin; pH 8, 50 C
T1 construct: gene SpAn4DRAFT_2936; same complex as P1, other site; native purification from S. ovata, untagged; tetramer of StnABC heterotrimers; mildly BS3-crosslinked for cryo-EM; with Electron-bifurcating transhydrogenase subunit StnA (HydC / NuoE-like, thioredoxin-like [2Fe-2S] subunit)
T1 sequence (A0A0U1KYM9 1-584): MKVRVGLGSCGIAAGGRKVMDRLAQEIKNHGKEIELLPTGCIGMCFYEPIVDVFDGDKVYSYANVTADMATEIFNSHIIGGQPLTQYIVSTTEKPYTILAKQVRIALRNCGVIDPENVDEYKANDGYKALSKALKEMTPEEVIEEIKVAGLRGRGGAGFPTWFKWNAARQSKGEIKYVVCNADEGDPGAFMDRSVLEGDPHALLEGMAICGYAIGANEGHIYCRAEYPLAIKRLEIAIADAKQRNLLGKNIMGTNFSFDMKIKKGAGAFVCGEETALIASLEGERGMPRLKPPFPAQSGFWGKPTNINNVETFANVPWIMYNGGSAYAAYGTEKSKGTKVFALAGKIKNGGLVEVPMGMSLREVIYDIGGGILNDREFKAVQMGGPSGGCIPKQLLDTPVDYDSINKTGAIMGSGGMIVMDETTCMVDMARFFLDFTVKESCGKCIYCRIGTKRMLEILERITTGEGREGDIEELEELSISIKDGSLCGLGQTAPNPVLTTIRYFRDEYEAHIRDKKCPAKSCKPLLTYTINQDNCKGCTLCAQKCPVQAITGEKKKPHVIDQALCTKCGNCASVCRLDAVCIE
T1 sequence (A0A0U1KYW8 1-178 partner): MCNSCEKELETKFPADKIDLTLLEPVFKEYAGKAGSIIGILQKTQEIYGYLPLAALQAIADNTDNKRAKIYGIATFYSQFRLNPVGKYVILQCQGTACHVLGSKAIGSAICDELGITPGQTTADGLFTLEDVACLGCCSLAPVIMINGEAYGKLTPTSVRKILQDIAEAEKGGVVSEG
T1 sequence (A0A0U1KYI6 1-1172 partner): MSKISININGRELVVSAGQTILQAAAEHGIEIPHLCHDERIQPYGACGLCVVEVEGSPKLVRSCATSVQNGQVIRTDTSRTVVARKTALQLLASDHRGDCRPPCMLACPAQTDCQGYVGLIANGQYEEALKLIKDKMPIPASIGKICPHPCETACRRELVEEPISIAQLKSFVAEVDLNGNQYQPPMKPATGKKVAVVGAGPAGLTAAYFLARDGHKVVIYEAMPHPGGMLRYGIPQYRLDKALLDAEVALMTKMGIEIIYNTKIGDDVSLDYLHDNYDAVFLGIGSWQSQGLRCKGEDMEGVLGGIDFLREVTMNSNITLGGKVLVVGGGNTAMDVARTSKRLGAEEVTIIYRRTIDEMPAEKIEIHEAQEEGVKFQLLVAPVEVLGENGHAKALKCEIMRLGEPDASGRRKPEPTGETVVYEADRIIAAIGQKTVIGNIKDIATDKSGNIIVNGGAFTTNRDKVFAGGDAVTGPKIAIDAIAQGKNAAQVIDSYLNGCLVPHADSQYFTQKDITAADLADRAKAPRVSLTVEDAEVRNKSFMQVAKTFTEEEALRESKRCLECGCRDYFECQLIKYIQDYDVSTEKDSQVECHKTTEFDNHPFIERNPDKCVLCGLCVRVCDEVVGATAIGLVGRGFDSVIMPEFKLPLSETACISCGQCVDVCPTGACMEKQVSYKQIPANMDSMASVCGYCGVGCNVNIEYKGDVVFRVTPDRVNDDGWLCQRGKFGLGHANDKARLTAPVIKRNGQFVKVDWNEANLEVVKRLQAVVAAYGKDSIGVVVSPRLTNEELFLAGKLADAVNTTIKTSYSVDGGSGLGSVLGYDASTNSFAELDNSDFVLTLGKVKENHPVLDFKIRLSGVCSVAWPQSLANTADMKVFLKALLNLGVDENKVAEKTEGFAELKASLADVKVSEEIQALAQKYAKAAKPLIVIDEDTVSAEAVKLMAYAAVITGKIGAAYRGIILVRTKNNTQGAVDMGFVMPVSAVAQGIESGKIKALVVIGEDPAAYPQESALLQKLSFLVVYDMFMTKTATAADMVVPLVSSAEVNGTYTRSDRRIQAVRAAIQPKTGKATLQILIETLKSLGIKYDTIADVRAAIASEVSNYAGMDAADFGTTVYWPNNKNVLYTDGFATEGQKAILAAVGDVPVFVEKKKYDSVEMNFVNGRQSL

[2] = target: T2, StnABC complex (FAD / NADP(H) site in StnC) (Sporomusa ovata, UniProt A0A0U1KYI6); test: spectrophotometric, […] nm; type: biochemical; conditions: 0.5 mM NADP+, 0.25 mM NADH, 30 uM reduced ferredoxin; pH 8, 50 C
T2 construct: gene SpAn4DRAFT_2937; native purification from S. ovata cytoplasm, untagged; tetramer of StnABC heterotrimers (D2); StnC 1172 amino acids; mildly BS3-crosslinked for cryo-EM; with Electron-bifurcating transhydrogenase subunit StnB (HydB / NuoF-like subunit); Electron-bifurcating transhydrogenase subunit StnA (HydC / NuoE-like, thioredoxin-like [2Fe-2S] subunit)
T2 sequence (A0A0U1KYI6 1-1172): T1 sequence (A0A0U1KYI6 1-1172 partner)
T2 sequence (A0A0U1KYM9 1-584 partner): T1 sequence (A0A0U1KYM9 1-584)
T2 sequence (A0A0U1KYW8 1-178 partner): T1 sequence (A0A0U1KYW8 1-178 partner)

[3] = target: StnC subunit of the StnABC transhydrogenase complex from Sporomusa ovata (Sporomusa ovata); test: cryo-EM structure; single-particle cryo-EM of the natively purified StnABC complex, mildly cross-linked, anoxic; state S1 without added FMN and substrates (3.2 Å) and state S2 with 10 µM FMN, 500 µM NAD+, 30 µM Fd, 500 µM NADPH (3.0 Å); D2 symmetry

Compound: NC(=O)C1=CN([C@@H]2O[C@H](COP(=O)(O)OP(=O)(O)OC[C@H]3O[C@@H](n4cnc5c(N)ncnc54)[C@H](O)[C@@H]3O)[C@@H](O)[C@H]2O)C=CC1 [NADH]
spectrophotometric, 340 nm [1]: catalysed the Fdred and NADH-dependent reduction of NADP^+

Compound: NC(=O)c1ccc[n+]([C@@H]2O[C@H](COP(=O)(O)OP(=O)(O)OC[C@H]3O[C@@H](n4cnc5c(N)ncnc54)[C@H](OP(=O)(O)O)[C@@H]3O)[C@@H](O)[C@H]2O)c1 [NADP^+]
spectrophotometric, 340 nm [2]: catalysed the Fdred and NADH-dependent reduction of NADP^+

stoichiometry N [3]: 4
Compound: StnC subunit of the StnABC transhydrogenase complex from Sporomusa ovata (natural protein)
